Assay results: US4871852A, “Quinoline-carboxylic acid derivatives” (Daiichi Seiyaku Co., Ltd., priority 1984, dated 1989)
≈ marks a conversion by molar mass, not a printed value. Read-outs that look alike come from different tables or passages of the source.

What was measured:
Escherichia coli NIHJ = assay: Minimum Inhibitory Concentration (standard method of the Japan Society of Chemotherapy); type: cell-based; details: Muller-Hinton bouillon, 10^6/ml bacteria, 37° C., 18 hours
Procedure: (§1) Determined by the standard method of the Japan Society of Chemotherapy: i
(§2) MullerHinton bouillon, 10^6 /ml of bacteria were seeded and incubated
(§3) at 37° C. for 18 hours.

Proteus vulgaris 3167 = assay: as above; type: cell-based; details: read-out: Minimum Inhibitory Concentration (MIC)
Procedure: as §1, §2, §3

[1] = tested on: Pseudomonas aeruginosa 2131; assay: as above; type: cell-based; details: read-out: Minimum Inhibitory Concentration (MIC)
Procedure: as §1, §2, §3

[2] = tested on: Pseudomonas cepacia IID 1340; assay: as above; type: cell-based; details: Burkholderia cepacia, read-out: Minimum Inhibitory Concentration (MIC)
Procedure: as §1, §2, §3

[3] = tested on: Pseudomonas maltophilia IID 1275; assay: as above; type: cell-based; details: Stenotrophomonas maltophilia, read-out: Minimum Inhibitory Concentration (MIC)
Procedure: as §1, §2, §3

[4] = tested on: Serratia marcessens 13001; assay: as above; type: cell-based; details: Muller-Hinton bouillon, 10^6/ml bacteria, 37° C., 18 hours
Procedure: as §1, §2, §3

[5] = tested on: Staphylococcus aureus Smith; assay: as above; type: cell-based; details: read-out: Minimum Inhibitory Concentration (MIC)
Procedure: as §1, §2, §3

[6] = tested on: Staphylococcus epidermidis 56556; assay: as above; type: cell-based; details: read-out: Minimum Inhibitory Concentration (MIC)
Procedure: as §1, §2, §3

[7] = tested on: Streptococcus faecalis ATCC 19433; assay: as above; type: cell-based; details: Enterococcus faecalis, read-out: Minimum Inhibitory Concentration (MIC)
Procedure: as §1, §2, §3

[8] = tested on: gram-positive and gram-negative bacteria; assay: antibacterial activity (statement in words); type: cell-based
[9] = pharmacokinetic properties: blood level, intestinal absorption (statement in words); type: in vivo; details: in comparison with cyprofloxacin
[10] = Proteus vulgaris 3167, Muller-Hinton bouillon, 10^6/ml bacteria, 37° C., 18 hours
[11] = Pseudomonas aeruginosa 2131, Muller-Hinton bouillon, 10^6/ml bacteria, 37° C., 18 hours
[12] = IID1340, Pseudomonas cepacia IID 1340, Muller-Hinton bouillon, 10^6/ml bacteria, 37° C., 18 hours
[13] = IID1275, Pseudomonas maltophilia IID 1275, Muller-Hinton bouillon, 10^6/ml bacteria, 37° C., 18 hours
[14] = Staphylococcus aureus Smith, Muller-Hinton bouillon, 10^6/ml bacteria, 37° C., 18 hours
[15] = Staphylococcus epidermidis 56556, Muller-Hinton bouillon, 10^6/ml bacteria, 37° C., 18 hours
[16] = ATCC19433, Streptococcus faecalis ATCC 19433, Muller-Hinton bouillon, 10^6/ml bacteria, 37° C., 18 hours

SMILES | MIC (Escherichia coli NIHJ) [µg/mL] | MIC (Proteus vulgaris 3167; [10]) [µg/mL] | MIC [1, 11] [µg/mL] | MIC [2, 12] [µg/mL] | MIC [3, 13] [µg/mL] | MIC [4] [µg/mL] | MIC [5, 14] [µg/mL] | MIC [6, 15] [µg/mL] | MIC [7, 16] [µg/mL] | antibacterial activity [8] | blood level [9] | intestinal absorption [9] | MIC (Proteus vulgaris 3167; Proteus vulgaris, 3167, 18 h) [µg/mL] | MIC ([1]; Pseudomonas aeruginosa, 2131, 18 h) [µg/mL] | MIC ([2]; IID1340, 18 h) [µg/mL] | MIC ([3]; IID1275, 18 h) [µg/mL] | MIC ([5]; Staphylococcus aureus, 18 h) [µg/mL] | MIC ([6]; Staphylococcus epidermidis, 56556, 18 h) [µg/mL] | MIC ([7]; ATCC19433, 18 h) [µg/mL]
CN1CCN(c2cc3c(cc2F)c(=O)c(C(=O)O)cn3C2CC2)CC1 [Ba-1, 1cyclopropyl-6-fluoro-1,4-dihydro-7-(4-methyl-1-piperazinyl)-4-oxoquinoline-3-carboxylic acid, reference compound] | ≤ 0.05 | ≤ 0.05 | 0.1 (≈ 0.29 µM) | 0.78 (≈ 2.26 µM) | 0.2 (≈ 0.579 µM) | 0.1 (≈ 0.29 µM) | 0.2 (≈ 0.579 µM) | 0.39 (≈ 1.13 µM) | 0.78 (≈ 2.26 µM) | – | – | – | – | – | – | – | – | – | –
O=C(O)c1cn(C2CC2)c2c(F)c(N3CCNCC3)c(F)cc2c1=O [Ba-4, 1cyclopropyl-6,8-difluoro-1,4-dihydro-7-(1-piperazinyl)-4-oxoquinoline-3-carboxylic acid, reference compound] | ≤ 0.05 | ≤ 0.05 | ≤ 0.05 | 0.39 (≈ 1.12 µM) | 0.39 (≈ 1.12 µM) | ≤ 0.05 | 0.2 (≈ 0.573 µM) | 0.2 (≈ 0.573 µM) | 0.78 (≈ 2.23 µM) | – | – | – | – | – | – | – | – | – | –
CN1CCN(c2c(F)cc3c(=O)c(C(=O)O)cn(C4CC4)c3c2F)CC1 [Ba-3, 1cyclopropyl-6,8-difluoro-1,4-dihydro-7-(4-methyl-1-piperazinyl)-4-oxoquinoline-3-carboxylic acid, reference compound] | ≤ 0.05 | ≤ 0.05 | 0.2 (≈ 0.55 µM) | 0.78 (≈ 2.15 µM) | ≤ 0.05 | ≤ 0.05 | 0.2 (≈ 0.55 µM) | 0.2 (≈ 0.55 µM) | 0.78 (≈ 2.15 µM) | – | – | – | – | – | – | – | – | – | –
O=C(O)c1cn([C@@H]2C[C@@H]2F)c2cc(N3CCNCC3)c(F)cc2c1=O (relative stereo) [Ia-2, 1-(cis-2-fluorocyclopropyl)-6-fluoro-1,4-dihydro-7-(1-piperazinyl)-4-oxoquinoline-3-carboxylic acid] | ≤ 0.05 | ≤ 0.05 | ≤ 0.05 | 1.56 (≈ 4.47 µM) | 0.78 (≈ 2.23 µM) | ≤ 0.05 | 0.1 (≈ 0.286 µM) | 0.2 (≈ 0.573 µM) | 1.56 (≈ 4.47 µM) | – | – | – | – | – | – | – | – | – | –
O=C(O)c1cn([C@@H]2C[C@@H]2F)c2c(F)c(N3CCNCC3)c(F)cc2c1=O (relative stereo) [Ib-2, 1-(2-fluorocyclopropyl)-6,8-difluoro-1,4-dihydro-7-(1-piperazinyl)-4-oxoquinoline-3-carboxylic acid] | ≤ 0.05 | ≤ 0.05 | ≤ 0.05 | 1.56 (≈ 4.25 µM) | 0.78 (≈ 2.12 µM) | ≤ 0.05 | 0.1 (≈ 0.272 µM) | 0.2 (≈ 0.544 µM) | 1.56 (≈ 4.25 µM) | – | – | – | – | – | – | – | – | – | –
CN1CCN(c2cc3c(cc2F)c(=O)c(C(=O)O)cn3[C@@H]2C[C@@H]2F)CC1 (relative stereo) [Ia-1, 1-(cis-2-fluorocyclopropyl)-6-fluoro-1,4-dihydro-7-(4-methyl-1-piperazinyl)-4-oxoquinoline-3-carboxylic acid] | ≤ 0.05 | ≤ 0.05 | 0.2 (≈ 0.55 µM) | 0.2 (≈ 0.55 µM) | 0.2 (≈ 0.55 µM) | ≤ 0.05 | ≤ 0.05 | 0.1 (≈ 0.275 µM) | 0.78 (≈ 2.15 µM) | strong antibacterial activity | high blood level | good intestinal absorption | – | – | – | – | – | – | –
CN1CCN(c2c(F)cc3c(=O)c(C(=O)O)cn([C@@H]4C[C@@H]4F)c3c2F)CC1 (relative stereo) [Ib-1, 1-(2-fluorocyclopropyl)-6,8-difluoro-1,4-dihydro-7-(4-methyl-1-piperazinyl)-4-oxoquinoline-3-carboxylic acid] | ≤ 0.05 | ≤ 0.05 | 0.1 (≈ 0.262 µM) | 0.78 (≈ 2.05 µM) | 0.1 (≈ 0.262 µM) | ≤ 0.05 | 0.1 (≈ 0.262 µM) | 0.2 (≈ 0.524 µM) | 0.78 (≈ 2.05 µM) | – | – | – | – | – | – | – | – | – | –
O=C(O)c1cn(C2CC2)c2cc(N3CCNCC3)c(F)cc2c1=O [Ba-2, 1-cyclopropyl-6-fluoro-1,4-dihydro-7-(1-piperazinyl)-4-oxoquinoline-3-carboxylic acid, reference compound] | ≤ 0.05 | – | – | – | – | ≤ 0.05 | – | – | – | – | – | – | ≤ 0.05 | ≤ 0.05 | 3.13 (≈ 9.45 µM) | 0.78 (≈ 2.35 µM) | 0.1 (≈ 0.302 µM) | 0.2 (≈ 0.604 µM) | 0.78 (≈ 2.35 µM)
